From patent publication US20050026827A1, “Octapeptide bombesin analogs” (Societe de Conseils de Recherches et d'Applications …, priority 1987, published 2005)
pIC50: −log10 of the molar value. Read-outs that look alike come from different tables or passages of the source. Non-standard residues stand in square brackets, D forms with d. Residues, ends and D or L forms follow the SMILES beside them. *: point of attachment. X1 = CC(C)C[C@H](NC[C@H](Cc1ccccc1)N*)C(N)=O; X2 = CC(C)C[C@@H](CN[C@@H](CC(C)C)C(N)=O)N*; Sta = CC(C)C[C@H](N)[C@@H](O)CC(=O)O; pGlu = O=C1CC[C@@H](C(=O)O)N1

What was measured:
[1] = target: 3T3 fibroblast bombesin receptors (murine (3T3 murine fibroblasts)) (UniProt P21729)
[2] = target: T1, 3T3 fibroblast bombesin receptors (3T3 GRP receptor) (Mus musculus, UniProt P21729); experiment: In vitro inhibition of [125I]GRP binding to 3T3 fibroblast bombesin receptors; parameters: species or system murine; details: for activity in the 3T3 GRP receptor binding assay (in words): Table 1
T1 construct: Membranes from various tissues (rat brain, rat pancreas, rat anterior pituitary, SCLC, 3T3 cells) are prepared by homogenization; endogenous in cells; host or cells: 3T3 fibroblasts (membrane preparation)
Protocol: Phase 4—In Vitro Inhibition of [^125I] Gastrin Releasing Peptide (GRP) Binding to Bombesin Receptors
Membranes from various tissues (rat brain, rat pancreas, rat anterior pituitary, SCLC, 3T3 cells) are prepared by homogenization in 50 mM TrisHCl containing 0.1% bovine serum albumin and 0.1 mg/ml bacitracin followed by two centrifugations (39,000×g×15 min., 4° C.) with an intermediate resuspension in-fresh buffer. For assay, aliquots […] are incubated with 0.5 nM [^125I]GRP (˜2000 Ci/mmol, Amersham Corp.) and various concentrations of the test compounds in a final volume of 0.5 ml. After a 30 minute incubation at 4° C., the binding reaction is terminated by rapid filtration through Whatman GF/C filters that have been pre-soaked in 0.3% aqueous polethyleneimine to reduce the level of nonspecific binding. The filters and tubes are washed three times with 4 ml aliquots of ice-cold buffer, and the radioactivity trapped on the filters is counted by gamma-spectrometry. Specific binding is defined as the total. [^125I]GRP bound minus that bound in the presence of 1000 nM. bombesin or a related peptide.
(§1) A number of analogs of bombesin or GRP, each containing a non-peptide bond or a statine, AHPPA, or ACHPA, β-amino acid, or γ-amino acid residue, can be synthesized and tested in one or more of the above-described Phase 1-7 assays; the results of Phase 1 and 2 tests are given in Table 1 attached hereto. […] (3T3 GRP receptor and thymidine uptake data are expressed in IC50 (nM).) Table 1 also gives results for non-peptide bond-containing analogs of one other naturally-occurring peptide, Neuromedin C, whose C-terminal seven amino acids are similar to those of bombesin and GRP. (In Table 1, “Litorin” indicates a 9 residue peptide analog or its derivative, whereas “Neuromedin C” indicates a 10 residue analog or its derivative.)

swiss 3T3 cells = swiss 3T3 cells (Mus musculus, UniProt P21729); experiment: Bombesin-stimulated [3H]thymidine uptake by cultured 3T3 cells; assay type: cell-based, murine; details: Table 1
Protocol: Phase 1—3T3 Peptide Stimulated [^3H] Thymidine Uptake Assay
Cell Culture. Stock cultures of swiss 3T3 cells are grown in Dulbecco's Modified Eagles Medium (DMEM) supplemented with 10% fetal calf serum in humidified atmosphere of 10% CO2/90% air at 37° C. For experimental use, the cells are seeded into 24-well cluster trays and used four days after she last change of medium. The cells are arrested in the G1/G0 phase of the cell cycle by changing to serum-free DMEM 24 hours prior to the thymidine uptake assay.
Assay of DNA Synthesis. The cells are washed twice with 1 ml aliquots of DMEM (-serum) then incubated with DMEM (-serum), 0.5 μM [methyl-^3H] thymidine (20 Ci/mmole, New England Nuclear), bombesin (3 nM), and initially four concentrations of the test compounds (1, 10, 100, 1000 nM) in a final volume of 1.0 ml. After 28 hours at 37° C., [methyl-^3H] thymidine incorporation into acid-insoluble pools is assayed as follows. The cells are washed twice with ice-cold 0.9% NaCl (1 ml aliquots), and acid soluble radioactivity is removed by a 30 min. (4° C.) incubation with 5% trichloroacetic acid (TCA). The cultures are then washed once (1 ml) with 95% ethanol and solubilized by a 30 min. incubation (1 ml) with 0.1N NaOH. The solubilized material is transferred to vials containing 10 ml ScintA (Packard), and the radioactivity is determined by liquid scintillation spectrometry.
as §1

NCI-H69 human SCLC = experiment: In vivo antitumor activity, NCI-H69 small cell lung carcinoma xenografts; details: for Tumor Size Day 18 (mm) / % Test/Control (Day 18) / % Test/Control (Day 28) / Tumor Size Day 28 (mm): 50 μg/inj., b.i.d., QD1-28; for Tumor Size Day 18 (mm) / Tumor Size Day 28 (mm): mean ± SD
Protocol: Phase 6—In Vivo Antitumor Activity
NCI-H69 small cell lung carcinoma cells were transplanted from in vitro culture by implanting each animal with the equivalent of 5 confluent 75 cm^2 tissue culture flasks in the right flank. In vitro NCI-H69 cells grow as a suspension of cellular aggregates. Therefore, no attempt was made to disaggregate the cell agglomerates by physical or chemical means. Tumor size was calculated as the average of two diameters, i.e., (length and width/2) mm.
(§2) These observations prompted us to evaluate the effect of BIM-26100 on the in vivo growth of the SCLC tumor cell line described in Phase 6. Twenty athymic nude females, 5 to 6 weeks of age, were implanted on day 0 with the NCI-H69 human SCLC, individually identified and then randomized into the following vehicle control and test groups:
(§3) Growth of NCI-H69 xenografts and the tumor growth inhibitory activity of the bombesin antagonist BIM-26100 (pGlu-Gln-Trp-Ala-Val-Gly-His-Pheψ[CH2NH]Leu-NH2) are illustrated as tumor growth curves in FIG. 1, and relative tumor sizes in Table 2. […] The effectiveness of the antitumor activity of BIM-26100 is evident in view of the large inoculum of NCI-H69 tumor cells (i.e. the equivalent of 5 confluent 75 cm^2 cell culture flasks per animal) and the agglomerated condition of the cells. In confluent flasks, NCI-H69 agglomerates are macroscopically visible and together resemble a metastatic tumor colony. Many such tumor colonies were implanted per animal. The dose of BIM-26100 […] and is not optimal. Higher doses of BIM-26100 may be administered, as indicated by body weight gain (minus tumor weight) gain during the course of treatment (Table 3).

[3] = Body weight (minus tumor weight) during BIM-26100 treatment of tumor-bearing animals; assay type: in vivo, athymic nude females; details: for Body Weight(gm) Day 0 / Body Weight(gm) Day 18 / Body Weight(gm) Day 28: 50 μg/inj., b.i.d., QD1-28, tumor weight subtracted
Excerpt: as §2, §3

[4] = inhibition of [125I]GRP binding, 3T3 membranes, read-out: 3T3 GRP Receptor IC50

T1 sequence (P21729 whole entry): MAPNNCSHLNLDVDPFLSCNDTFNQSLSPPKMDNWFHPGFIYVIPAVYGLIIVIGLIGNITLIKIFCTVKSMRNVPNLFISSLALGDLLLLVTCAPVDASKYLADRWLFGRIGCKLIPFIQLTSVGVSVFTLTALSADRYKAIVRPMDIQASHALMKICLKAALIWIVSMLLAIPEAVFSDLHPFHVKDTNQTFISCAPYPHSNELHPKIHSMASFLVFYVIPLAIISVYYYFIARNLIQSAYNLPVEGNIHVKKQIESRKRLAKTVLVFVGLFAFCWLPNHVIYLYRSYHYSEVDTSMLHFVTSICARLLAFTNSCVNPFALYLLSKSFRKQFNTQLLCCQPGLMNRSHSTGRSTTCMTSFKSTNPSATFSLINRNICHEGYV
Chain of swiss 3T3 cells (P21729 whole entry): as above

Question: Which bombesin-stimulated [3H]Thymidine uptake, IC50 [1] does the source give for “BIM-26105, D-Ala-Asn-His-Trp-Ala-Val-D-ALa-His-Leuψ[CH2CH]Leu-NH2 (Neuromedin C analog) (peptide)” here?
Answer: 107 nM

Question: For “BIM-26108, N-Ac-D-Ala-His-Trp-Ala-Val-Gly-His-Leuψ[CH2NH]Leu-NH2 (GRP (19-27) analog) (peptide)”, which bombesin-stimulated [3H]Thymidine uptake, IC50 [1] is on record?
Answer: > 1000 nM

Question: With `CC(C)C[C@@H](CN[C@@H](CC(C)C)C(N)=O)NC(=O)[C@H](Cc1c[nH]cn1)NC(=O)CNC(=O)[C@@H](NC(=O)[C@H](C)NC(=O)[C@H](Cc1c[nH]c2ccccc12)NC(=O)[C@H](CCC(N)=O)NC(=O)[C@H](N)Cc1ccccc1)C(C)C` [BIM-26113, D-Phe-Gln-Trp-Ala-Val-Gly-His-Leuψ[CH2NH]Leu-NH2] as the compound, how does the pIC50 [2] read?
Answer: 8.24

Question: What about the “activity in the 3T3 GRP receptor binding assay (in words)” value [2] of the same compound?
Answer: active

Question: For “BIM-26113, D-Phe-Gln-Trp-Ala-Val-Gly-His-Leuψ[CH2NH]Leu-NH2 (Litorin analog) (peptide)”, which bombesin-stimulated [3H]Thymidine uptake, IC50 [1] is on record?
Answer: 9 nM

Question: With `CC(=O)N[C@H](C)C(=O)N[C@@H](Cc1c[nH]cn1)C(=O)N[C@@H](Cc1c[nH]c2ccccc12)C(=O)N[C@@H](C)C(=O)N[C@H](C(=O)NCC(=O)N[C@@H](Cc1c[nH]cn1)C(=O)N[C@H](CN[C@@H](CC(C)C)C(N)=O)CC(C)C)C(C)C` [BIM-26108, N-Ac-D-Ala-His-Trp-Ala-Val-Gly-His-Leuψ[CH2NH]Leu-NH2] (Ac-[dA]HWAVGH-X2) as the compound, how does the “activity in the 3T3 thymidine uptake assay (in words)” value (swiss 3T3 cells) read?
Answer: negative results

Question: What about the pIC50 [2, 4] of the same compound?
Answer: 6.08

Question: With `CC(C)C[C@@H](CN[C@@H](CC(C)C)C(N)=O)NC(=O)[C@H](Cc1c[nH]cn1)NC(=O)CNC(=O)[C@@H](NC(=O)[C@H](C)NC(=O)[C@H](Cc1c[nH]c2ccccc12)NC(=O)[C@H](CCC(N)=O)NC(=O)[C@@H]1CCC(=O)N1)C(C)C` [BIM-26101, pGlu-Gln-Trp-Ala-Val-Gly-His-Leuψ[CH2NH]Leu-NH2] ([pGlu]QWAVGH-X2) as the compound, how does the “activity in the 3T3 GRP receptor binding assay (in words)” value [2] read?
Answer: most active

Question: With `CC(C)C[C@@H](CN[C@@H](CC(C)C)C(N)=O)NC(=O)[C@H](Cc1c[nH]cn1)NC(=O)[C@@H](C)NC(=O)[C@@H](NC(=O)[C@H](C)NC(=O)[C@H](Cc1c[nH]c2ccccc12)NC(=O)[C@H](CCC(N)=O)NC(=O)[C@@H]1CCC(=O)N1)C(C)C` [BIM-26095, pGlu-Gln-Trp-Ala-Val-D-Ala-His-Leuψ[CH2NH]Leu-NH2] ([pGlu]QWAV[dA]H-X2) as the compound, how does the pIC50 [2, 4] read?
Answer: 5.58

Question: For `CC(C)C[C@H](NC[C@H](Cc1ccccc1)NC(=O)[C@H](Cc1c[nH]cn1)NC(=O)CNC(=O)[C@@H](NC(=O)[C@H](C)NC(=O)[C@H](Cc1c[nH]c2ccccc12)NC(=O)[C@H](CCC(N)=O)NC(=O)[C@@H]1CCC(=O)N1)C(C)C)C(N)=O` [BIM-26100, pGlu-Gln-Trp-Ala-Val-Gly-His-Pheψ[CH2NH]Leu-NH2] ([pGlu]QWAVGH-X1), which “Tumor Size Day 18 (mm)” value (NCI-H69 human SCLC; s.c. inf. (infused around tumor)) is on record?
Answer: 7.6 ± 1.56 mm

Question: What about the “% Test/Control (Day 18)” value (NCI-H69 human SCLC; s.c. inf.) of the same compound?
Answer: 70%

Question: And the “% Test/Control (Day 28)” value (NCI-H69 human SCLC; s.c. inf.)?
Answer: 86%

Question: What about the “Tumor Size Day 28 (mm)” value (NCI-H69 human SCLC; s.c. inf.) of the same compound?
Answer: 13.7 ± 0.67 mm

Question: And the “% Test/Control (Day 18)” value (NCI-H69 human SCLC; s.c.)?
Answer: 93%

Question: And the “Tumor Size Day 18 (mm)” value (NCI-H69 human SCLC; s.c.)?
Answer: 10.1 ± 1.47 mm

Question: And the “% Test/Control (Day 28)” value (NCI-H69 human SCLC; s.c.)?
Answer: 108%

Question: And the “Tumor Size Day 28 (mm)” value (NCI-H69 human SCLC; s.c.)?
Answer: 17.3 ± 1.96 mm

Question: And the “tumor growth inhibitory activity (in words)” value (NCI-H69 human SCLC; s.c. infusion around the tumor)?
Answer: significantly inhibited tumor growth

Question: What about the “Body Weight(gm) Day 0” value ([3]; s.c. inf.) of the same compound?
Answer: 17.7 gm

Question: And the “Body Weight(gm) Day 18” value ([3]; s.c. inf.)?
Answer: 20.4 gm

Question: What about the “Body Weight(gm) Day 28” value ([3]; s.c. inf.) of the same compound?
Answer: 21.1 gm

Question: And the “Body Weight(gm) Day 0” value ([3]; s.c.)?
Answer: 16.9 gm

Question: What about the “Body Weight(gm) Day 18” value ([3]; s.c.) of the same compound?
Answer: 19.2 gm

Question: What about the “Body Weight(gm) Day 28” value ([3]; s.c.) of the same compound?
Answer: 19.1 gm

Question: And the “local or systemic toxicity (in words)” value ([3]; judged from body weight gain during treatment)?
Answer: completely lacks local or systemic toxicity

Question: And the “activity in the 3T3 GRP receptor binding assay (in words)” value [2]?
Answer: most active

Question: Which “activity in the 3T3 thymidine uptake assay (in words)” value (swiss 3T3 cells) does the source give for `CC(C)C[C@H](NC(=O)[C@H](Cc1c[nH]cn1)NC(=O)CNC(=O)[C@@H](NC(=O)[C@H](C)NC(=O)[C@H](Cc1c[nH]c2ccccc12)NC(=O)[C@H](CCC(N)=O)NC(=O)[C@@H]1CCC(=O)N1)C(C)C)[C@@H](O)CC(N)=O` [BIM-26120, pGlu-Gln-Trp-Ala-Val-Gly-His-Sta-NH2] ([pGlu]QWAVGH[Sta]-NH2) here?
Answer: potent antagonists

Question: With “BIM-26106, desGly-D-Ala-His-Trp-Ala-Val-D-ALa-His-Leuψ[CH2CH]Leu-NH2 (Neuromedin C analog) (peptide)” as the compound, how does the bombesin-stimulated [3H]Thymidine uptake, IC50 [1] read?
Answer: 354 nM

Question: Which bombesin-stimulated [3H]Thymidine uptake, IC50 [1] does the source give for “BIM-26122, D-Phe-Gln-Trp-Ala-Val-Gly-His-Leu-NH2 (Litorin analog) (peptide)” here?
Answer: 28.6 nM

Question: With “BIM-26095, pGlu-Gln-Trp-Ala-Val-D-Ala-His-Leuψ[CH2NH]Leu-NH2 (Litorin analog) (peptide)” as the compound, how does the bombesin-stimulated [3H]Thymidine uptake, IC50 [1] read?
Answer: 1210 nM

Question: Which bombesin-stimulated [3H]Thymidine uptake, IC50 [1] does the source give for “BIM-26107, D-Phe-His-Trp-Ala-Val-Gly-His-Leuψ[CH2NH]Leu-NH2 (Neuromedin C analog) (peptide)” here?
Answer: 154 nM
